Measured values from patent publication US6544966B1, “Agents promoting laminin production in skin cells” (Shiseido Company, Ltd., priority 1998, dated 2003).
Several values for one entry are separate records, joined by “and”; a condition that tells them apart may be missing. Identical values can stand only once.

Test system: epidermic stratum corneum cells
Assay: Tests for the ability to produce laminin 5 (culture of epidermic stratum corneum cells, sandwich ELISA)
Type: cell-based, human
Description: Epidermic stratum corneum cells were isolated from the human preputium and cultured in an epidermic cell growth medium (KGM) having a low calcium concentration. To this culture medium were added bovine pituitary extract and EGF. After the cells were cultured in KGM up to the fourth generation, and treated with trypsin and EDTA to suspend adherent cells. Then, the culture was filtered to remove cell aggregates and thereby obtain a homogeneous cell suspension. The cells were collected by centrifugation and resuspended in DMEM-F12 (2:1)-0.1% BSA so as to give a cell density of 8×10^4 per ml. 0.5 ml each of this cell suspension was added to 0.5 ml of the same medium containing a twofold concentration of each test sample. Using a 24-well plate, incubation was carried out at 37° C. for 24 hours. After completion of the incubation, the culture supernatant was transferred to an Eppendorf tube and centrifuged at 15,000 rpm for 5 minutes. The supernatant was transferred to a new tube and stored at−20° C. till the day for the determination of laminin 5. In order to solubilize laminin 5 in the cells and bound to the culture plastics, a tris-HCl buffer (pH 7.4) containing various surfactants was added to each well and allowed to stand at −20° C. overnight. On the following day, the mixture was ultrasonicated and frozen again. On the following day, the mixture was thawed again and centrifuged at 15,000 rpm for 5 minutes. The supernatant was transferred to a tube and stored at −20° C. till the day for the determination of laminin 5.
Laminin 5 present in the culture supernatant and the cell layer was determined by the sandwich ELISA method. A monoclonal antibody (BM165) to the laminin α3 chain of laminin 5 was attached to a solid layer of a 96-well ELISA plate. In order to measure laminin 5 in a sandwiched manner, a monoclonal antibody (6F12) to the laminin β3 chain was previously biotinized (b-6F12) and used as the other antibody. […] A sample was added to each of the wells in which a 3% gelatin-phosphate buffer solution containing b-6F12 had previously been placed. The final degree of dilution of the sample in the wells was 1/4 for the culture medium and 1/10 for the cell layer. After the antigen-antibody reaction was carried out at 37° C. for 2 hours, the wells were washed, and an avidin HRP (horseradish peroxidase) solution was added thereto and reacted for a period of 30 minutes to 1 hour. After washing, a solution of ABTS serving as a substrate for HRP was added thereto and the absorbance at 405 nm was measured with an ELISA plate reader. A calibration curve was constructed over a range of 0 to 40 ng/ml.
The yield of laminin 5 was expressed by the sum of the amount liberated into the culture medium and the amount remaining in the cell layer.

Substance	Relative yield of laminin 5 based on control with no addition (%) Mean ± Standard deviation
lysophosphatidic acid [LPA-C18: 1]	225.4 ± 12.5% and 254.0 ± 8.7%
lysophosphatidylcholine [LPC-C12: 0, reference compound]	88.6 ± 5.1%
lysophosphatidylcholine [LPC-C14: 0]	100.8 ± 5.6%
lysophosphatidylcholine [LPC-C16: 0]	104.5 ± 3.3%
lysophosphatidylcholine [LPC-C18: 0]	112.4 ± 8.0%
lysophosphatidylcholine [LPC-C18: 1]	112.7 ± 6.7% and 147.4 ± 5.2%
lysophosphatidylcholine [LPC-C18: 2]	133.6 ± 1.3% and 174.0 ± 5.4%
